Assays:
Mus musculus [1] = assay: Average change in weight in mice bearing the B16 Melanoma, when compound (20 mg/kg) was administered beginning 24 hr after tumor implantation, daily once for 6 consecutive days.; type: functional
Mus musculus [2] = assay: Average change in weight in mice bearing the L1210 Leukemia, when compound (10 mg/kg) was administered beginning 24 hr after tumor implantation, daily once for 6 consecutive days.; type: functional
Mus musculus [3] = assay: Average change in weight in mice bearing the L1210 Leukemia, when compound (5 mg/kg) was administered beginning 24 hr after tumor implantation, daily once for 6 consecutive days.; type: functional
Mus musculus [4] = assay: Average change in weight in mice bearing the L1210 Leukemia, when compound(15 mg/kg) was administered beginning 24 h after tumor implantation, daily once for 6 consecutive days.; type: functional
Mus musculus [5] = assay: Average change in weight in mice bearing the B16 Melanoma, when compound (15 mg/kg) was administered beginning 24 h after tumor implantation, daily once for 6 consecutive days.; type: functional
Mus musculus [6] = assay: Average change in weight in mice bearing the B16 Melanoma, when compound(10 mg/kg) was administered intraperitoneally beginning 24 hr after tumor implantation, daily once for 6 consecutive days.; type: functional
Mus musculus [7] = assay: The ratio of the survival time of treated to control animals x 100 in mice bearing B16 Melanoma, when compound (15 mg/kg) was administered intraperitoneally; type: functional
Mus musculus [8] = assay: The ratio of the survival time of treated to control animals x 100 in mice bearing B16 Melanoma, when compound (20 mg/kg) was administered intraperitoneally; type: functional
Mus musculus [9] = assay: The ratio of the survival time of treated to control animals x 100 in mice bearing B16 Melanoma, when compound (5 mg/kg) was administered intraperitoneally; type: functional
Mus musculus [10] = assay: The ratio of the survival time of treated to control animals x 100 in mice bearing L1210 Leukemia, when compound (10 mg/kg) was administered intraperitoneally; type: functional
Mus musculus [11] = assay: The ratio of the survival time of treated to control animals x 100 in mice bearing L1210 Leukemia, when compound (15 mg/kg) was administered intraperitoneally; type: functional
Mus musculus [12] = assay: The ratio of the survival time of treated to control animals x 100 in mice bearing L1210 leukemia, when compound (5 mg/kg) was administered intraperitoneally; type: functional
Mus musculus [13] = assay: Number of mice surviving for a period greater than 50 days when a dose of 30 mg/Kg is administered intraperitoneally; tested in 5 mice; type: functional
Mus musculus [14] = assay: Number of mice survived for a period greater than 50 days when a dose of 20 mg/Kg is administered intraperitoneally; tested in 5 mice; type: functional
L1210 [15] = assay: Number L1210 (murine leukemia) inoculated mice surviving for >50 days following 25 mg/kg i.p.; type: functional, Mus musculus; conditions: route intraperitoneal
Mus musculus [16] = assay: Average change in weight in mice bearing the B16 Melanoma, when compound(50 mg/kg) was administered intraperitoneally beginning 24 hr after tumor implantation, daily once for 6 consecutive days.; type: functional
Mus musculus [17] = assay: Average change in weight in mice bearing the L1210 Leukemia, when compound (20 mg/kg) was administered once daily beginning 24 hr after tumor implantation, for 6 consecutive days.; type: functional
Mus musculus [18] = assay: Average change in weight in mice bearing the L1210 Leukemia, when compound (25 mg/kg) was administered once daily beginning 24 hr after tumor implantation, for 6 consecutive days.; type: functional
Mus musculus [19] = assay: Average change in weight in mice bearing the L1210 Leukemia, when compound(30 mg/kg) was administered once daily beginning 24 hr after tumor implantation, for 6 consecutive days.; type: functional
Mus musculus [20] = assay: Average change in weight in mice bearing the B16 Melanoma, when compound(150 mg/kg) was administered beginning 24 hr after tumor implantation, daily once for 6 consecutive days.; type: functional
Mus musculus [21] = assay: Average change in weight in mice bearing the B16 Melanoma, when compound(100 mg/kg) was administered beginning 24 hr after tumor implantation, daily once for 6 consecutive days.; type: functional
Mus musculus [22] = assay: The ratio of the survival time of treated to control animals x 100 in mice bearing B16 Melanoma, when compound (100 mg/kg) was administered intraperitoneally; type: functional
Mus musculus [23] = assay: The ratio of the survival time of treated to control animals x 100 in mice bearing B16 Melanoma, when compound (150 mg/kg) was administered intraperitoneally; type: functional
Mus musculus [24] = assay: The ratio of the survival time of treated to control animals x 100 in mice bearing B16 Melanoma, when compound (50 mg/kg) was administered intraperitoneally; type: functional
L1210 [25] = assay: Percentage survival time of L1210 (murine leukemia) inoculated mice following 25 mg/kg i.p.; type: functional, Mus musculus; conditions: route intraperitoneal
L1210 [26] = assay: Percentage survival time of L1210 (murine leukemia) inoculated mice following 30 mg/kg i.p.; type: functional, Mus musculus; conditions: route intraperitoneal
L1210 [27] = assay: Percentage survival time of L1210 (murine leukemia) inoculated mice following 20 mg/kg i.p.; type: functional, Mus musculus; conditions: route intraperitoneal
Mus musculus [28] = assay: Survival of mice bearing B16 melanoma cells greater than 50 days when treated with a dose of 100 mg/Kg administered intraperitoneally; tested in 5 mice; type: functional
Mus musculus [29] = assay: Survival of mice bearing B16 melanoma cells greater than 50 days when treated with a dose of 150 mg/Kg administered intraperitoneally; tested in 5 mice; type: functional
Mus musculus [30] = assay: Survival of mice bearing B16 melanoma cells greater than 50 days when treated with a dose of 50 mg/Kg administered intraperitoneally; tested in 5 mice; type: functional
Mus musculus [31] = assay: Number of mice survived for a period of greater than 50 days when a dose of 25 mg/Kg is administered intraperitoneally; tested in 10 mice; type: functional
Mus musculus [32] = assay: Number of mice survived for a period of greater than 50 days when a dose of 30 mg/Kg is administered intraperitoneally; tested in 10 mice; type: functional
Mus musculus [33] = assay: Number of mice survived for a period of greater than 50 days when a dose of 20 mg/Kg is administered intraperitoneally; tested in 10 mice; type: functional
Mus musculus [34] = assay: Average change in weight in mice bearing the L1210 Leukemia, when compound (15 mg/kg) was administered beginning 24 hr after tumor implantation, daily once for 6 consecutive days.; type: functional
Mus musculus [35] = assay: Number of mice survived for a period of greater than 50 days when a dose of 5 mg/Kg is administered intraperitoneally; tested in 5 mice; type: functional
Mus musculus [36] = assay: Number of mice survived for a period of greater than 50 days when a dose of 10 mg/Kg is administered intraperitoneally; tested in 5 mice; type: functional
Mus musculus [37] = assay: Number of mice survived for a period of greater than 50 days when a dose of 15 mg/Kg is administered intraperitoneally; tested in 5 mice; type: functional
Mus musculus [38] = assay: Number of mice survived for a period of greater than 50 days when a dose of 25 mg/Kg is administered intraperitoneally; tested in 4 mice; type: functional
Mus musculus [39] = assay: Number of mice survived for a period of greater than 50 days when a dose of 10 mg/kg is administered intraperitoneally; tested in 5 mice; type: functional; conditions: route intraperitoneal
Mus musculus [40] = assay: Number of mice survived for a period of greater than 50 days when a dose of 15 mg/kg is administered intraperitoneally; tested in 5 mice; type: functional; conditions: route intraperitoneal
Mus musculus [41] = assay: Average change in weight in mice bearing the B16 Melanoma, when compound(3 mg/kg) was administered beginning 24 hr after tumor implantation, daily once for 6 consecutive days.; type: functional
Mus musculus [42] = assay: Average change in weight in mice bearing the L1210 Leukemia, when compound (3 mg/kg) was administered beginning 24 hr after tumor implantation, daily once for 6 consecutive days.; type: functional
Mus musculus [43] = assay: The ratio of the survival time of treated to control animals x 100 in mice bearing B16 Melanoma, when compound (3 mg/kg) was administered intraperitoneally; type: functional
Mus musculus [44] = assay: The ratio of the survival time of treated to control animals x 100 in mice bearing L1210 leukemia, when compound (3 mg/kg) was administered intraperitoneally; type: functional
Mus musculus [45] = assay: Survival of mice bearing B16 melanoma cells greater than 50 days when treated with a dose of 3 mg/Kg administered intraperitoneally; tested in 5 mice; type: functional
Mus musculus [46] = assay: Number of mice survived for a period of greater than 50 days when a dose of 3 mg/Kg is administered intraperitoneally; tested in 5 mice; type: functional

SMILES | Average weight (Mus musculus [2]) [%] | Average weight (Mus musculus [3]) [%] | Activity (Mus musculus [10]) | Activity (Mus musculus [11]) | Activity (Mus musculus [12]) | Survivals (Mus musculus [13]) | Survivals (Mus musculus [14]) | Average body weight change (Mus musculus [16]) [%] | Average change in body weight (Mus musculus [17]) [%] | Average body weight change (Mus musculus [18]) [%] | Average change in body weight (Mus musculus [19]) [%] | Average change in body weight (Mus musculus [20]) [%] | Average change in body weight (Mus musculus [21]) [%] | Activity (Mus musculus [22]) | Activity (Mus musculus [23]) | Activity (Mus musculus [24]) | Activity (L1210 [26]) | Survivals (Mus musculus [28]) | Survivals (Mus musculus [29]) | Survivals (Mus musculus [30]) | also measured
CS(=O)(=O)Oc1cccc2c1C(=O)C(N1CC1)=C(N1CC1)C2=O | -7.1 | 3.3 | 185 | 295 | 130 | 2 | 0 |  |  |  |  |  |  |  |  |  |  |  |  |  | Average weight (Mus musculus [1]): -8.1%; Average weight (Mus musculus [4]): -10%; Average weight (Mus musculus [5]): -6.4%; Average weight (Mus musculus [6]): -3.8%; Activity (Mus musculus [7]): 137; Activity (Mus musculus [8]): 153; Activity (Mus musculus [9]): 125; Survivals (L1210 [15]): 4
Cc1ccc(S(=O)(=O)Oc2cccc3c2C(=O)C(N2CC2)=C(N2CC2)C3=O)cc1 |  |  |  |  |  |  |  | 4.5 | -2.2 | -3.5 | -7.4 | -9.8 | -1.9 | 153 | 141 | 144 | 248 | 0 | 0 | 0 | Activity (L1210 [25]): 490; Activity (L1210 [27]): 155; Survivals (Mus musculus [31]): 9; Survivals (Mus musculus [32]): 7; Survivals (Mus musculus [33]): 7
O=C1C(N2CC2)=C(N2CC2)C(=O)c2c(O)cccc21 | -3.2 | 6.3 | 96 | 104 | 114 |  |  |  |  |  |  |  |  |  |  |  |  |  |  |  | Average weight (Mus musculus [34]): -0.8%; Survivals (Mus musculus [35]): 0; Survivals (Mus musculus [36]): 0; Survivals (Mus musculus [37]): 0
COc1ccc(S(=O)(=O)Oc2cccc3c2C(=O)C(N2CC2)=C(N2CC2)C3=O)cc1 |  |  |  |  |  | 3 | 0 | -4.7 | -0.1 | -2.4 | -1.3 | -15.2 | -12.4 | 154 | 165 | 132 | 193 | 0 | 0 | 0 | Activity (L1210 [25]): 222; Activity (L1210 [27]): 175; Survivals (Mus musculus [38]): 1
O=C1C(N2CC2)=CC(=O)c2c(O)cccc21 | 5.1 | 12.7 | 94 | 90 | 231 |  |  |  |  |  |  |  |  |  |  |  |  |  |  |  | Average weight (Mus musculus [34]): 2.1%; Survival (Mus musculus [39]): 0; Survival (Mus musculus [40]): 0; Survival (Mus musculus [35]): 0
O=C1C(N2CC2)=C(N2CC2)C(=O)c2c(OS(=O)(=O)c3ccccc3)cccc21 |  |  |  |  |  | 4 | 5 | -1.3 | -6.2 | -8.3 | -7 | -13.5 | -12.3 | 180 | 148 | 156 | 359 | 0 | 0 | 0 | Survivals (L1210 [15]): 5
O=C1C(N2CC2)=C(N2CC2)C(=O)c2c(OS(=O)(=O)c3ccc(Cl)cc3)cccc21 |  |  |  |  |  | 3 | 0 | 1.1 | 4.2 | 1.7 | -2.7 | -3.2 | -2.5 | 153 | 178 | 143 | 167 | 0 | 0 | 0 | Activity (L1210 [25]): 200; Activity (L1210 [27]): 161; Survivals (L1210 [15]): 0
CCOC(=O)NC1=C(N2CC2)C(=O)C(NC(=O)OCC)=C(N2CC2)C1=O [DIAZIQUONE] |  |  |  |  |  |  |  |  |  |  |  |  |  |  |  |  |  |  |  |  | Average weight (Mus musculus [41]): -13.8%; Average weight (Mus musculus [42]): -11.7%; Activity (Mus musculus [43]): 147; Activity (Mus musculus [44]): 231; Survivals (Mus musculus [45]): 0; Survivals (Mus musculus [46]): 0
